In brackets after ≈: the same amount, converted by molar mass. Positions of bridges follow the written chain, without caps; N, C: chain ends. Non-standard residues stand in square brackets, D forms with d. Residues, ends and D or L forms follow the SMILES beside them. Groups on a side chain read outwards from the residue. Chains are numbered I, II in the order given. *: point of attachment. Decanoyl = CCCCCCCCCC(=O)*; Orn = NCCC[C@H](N)C(=O)O; Dab = NCC[C@H](N)C(=O)O
Experiments:
[1] = test system: human red blood cells (hRBC); test: Haemolysis assay, minimal haemolytic concentration (MHC); type: cell-based; settings: hRBC in PBS pH 7.4, 4 h, room temperature
Procedure: To determine the minimal haemolytic concentration (MHC) stock solutions of 8 mg/mL of the peptide dendrimers in H2O were prepared and 50 μL were diluted serially by ½ in 50 μL PBS (pH 7.4) in 96-well plate (Cornstar or Nunc, polystyrene, untreated). Human red blood cells (hRBC) were obtained by centrifuging 1.5 mL of whole blood from friendly donors at 3000 rpm for 15 minutes. Plasma was discarded and the pellet was re-suspended in a 15 mL falcon tube up to 5 mL of PBS. The washing was repeated three times and the remaining pellet was re-suspended in 10 mL of PBS at a final hRBC concentration of 5%. The hRBC suspension (50 μL) was added to each well and the plate was incubated at room temperature for 4 hours. Minimal haemolytic concentration (MHC) end points were determined by visual inspection of the wells after the incubation period. Controls on each plate included a blank medium control (50 μl PBS+50 μl of hRBC suspension) and a haemolytic activity control (mQ-deionized water 50 μL+50 μL hRBC suspension).
MIC (minimal inhibitory concentration) and MHC (minimal haemolytic concentration, determined on human red blood cells (hRBC)) values are given in μg/mL. When no detectable haemolytic activity was observed, the last measured concentration was used for calculation of the therapeutic index. TI (therapeutic index)=MHC (μg/ml)/geometric mean of MIC (μg/ml). Larger values indicate greater antimicrobial specificity.

[2] = test system: Bacillus subtilis (strain BR151); type: cell-based; settings: LB medium
Summary of the method: (§1)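 Broth microdilution MIC in LB; overnight cultures diluted to OD600 0.001 and mixed 1:1 with ⅔-serially diluted samples (stock 1 mg mL^−1 in H2O), 37° C for 18-24 h. MTT (0.1%) added; MIC read by eye as lowest concentration inhibiting visible growth (yellow).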

[3] = test system: Escherichia coli (strain DH5α); type: cell-based; settings: LB medium
Summary of the method: as §1

[4] = test system: Pseudomonas aeruginosa (strain PA01); test: microbe, parasite or virus in culture; type: cell-based; settings: LB medium, serial 2/3 dilution, 37 °C, 18-24 h
Summary of the method: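 Broth microdilution MIC against P. aeruginosa PAO1 in LB: peptides serially diluted by ⅔, bacteria added at OD600 0.001 and incubated 18–24 h at 37 °C. MTT added; MIC is the lowest concentration preventing visible growth.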

[5] = test system: P. aeruginosa PEJ2.6, PEJ9.1, ZEM1.A, ZEM9.A (clinical isolates); type: cell-based, Pseudomonas aeruginosa; settings: PEJ2.6, PEJ9.1, ZEM1.A, ZEM9.A (clinical isolates)
Procedure: (§2) Antimicrobial activity was assayed against P. aeruginosa PA01 (WT), P. aeruginosa PT1482 (A-), PT1485 (A-B-), PT1149 (A-B-C-algC), PT331 (Z61) (LPS mutants), P. aeruginosa PEJ2.6, PEJ9.1, ZEM1.A, ZEM9.A (clinical isolates from Université de Genève/Centre Médical Universitaire), Burkholderia cenocepacia (B. ceno), Staphylococcus aureus (S. aureus, MRSA strain) and Acinetobacter baumannii (A. baum) (clinical isolates from Université de Genève/Centre Médical Universitaire). To determine the minimal inhibitory concentration (MIC), microdilution broth method was used. A colony of bacteria was grown in MH-medium overnight at 37° C. The samples were prepared as stock solutions of 8 mg mL^−1 in H2O, diluted to the beginning concentration of 32, 64, 128 or 256 μg/mL in 300 μL MH-medium, added to the first well of 96-well microtiterplate (TPP, untreated) and diluted serially by ½. The concentration of the bacteria was quantified by measuring absorbance at 600 nm and diluted to OD600=0.022 in MH-medium. The sample solutions (150 μL) were mixed with 4 μL diluted bacterial suspension with a final inoculation of about of 5×10^5 CFU. The plates were incubated at 37° C. until satisfactory growth (˜18 h). For each test, two columns of the plate were kept for sterility control (SC, broth only) and growth control (GC, broth with bacterial inoculums, no antibiotics). The minimal inhibitory concentration (MIC) was defined as the lowest concentration of the antimicrobial substance (peptide dendrimer) that inhibited visible growth of the tested bacteria with the unaided eye. For microbiological study Polymyxin was used as references.
(§3) Ten of the most promising compounds (FIG. 5) were tested for their efficiency against four clinical isolates of P. aeruginosa (ZEM9.A, ZEM1.A, PEJ2.6, PEJ9.1), one S. aureus (COL, MRSA reference strain) and one A. baumannii strain. For the experiments in Genève the peptide dendrimers and reference compounds (polymyxin) were dissolved in PBS and the assay was carried out in Müller-Hinton (MH) broth with a two-fold dilution.

[6] = test system: Acinetobacter baumannii; type: cell-based
Procedure: as §2, §3

[7] = test system: Staphylococcus aureus (COL, MRSA reference strain); type: cell-based; settings: COL, reference strain
Procedure: as §2, §3

[8] = test system: PAO1; type: cell-based, Pseudomonas aeruginosa; settings: PAO1
Procedure: as §2

[9] = test system: P. aeruginosa PA01 (WT); type: cell-based, Pseudomonas aeruginosa; settings: WT
Procedure: as §2

Compound	MHC (minimal haemolytic concentration) [1]	MIC B. subtilis BR151 [2]	MIC E. coli DH5α [3]	MIC P. aeruginosa PAO1 [4]	MIC P. aeruginosa MDR clinical isolate PEJ2.6 [5]	MIC P. aeruginosa MDR clinical isolate PEJ9.1 [5]	MIC P. aeruginosa MDR clinical isolate ZEM1A [5]	MIC A. baumannii ATCC19606 [6]	MIC S. aureus COL [7]	MIC (MH + 30% human serum) [8]	MIC (MH) [9]	MIC PAO1 [9]	MIC P. aeruginosa MDR clinical isolate ZEM9A [5]
(DabL)8(KDabW)4(KDabW)2(KDabL) [MSt-204]	146 µg/mL	2 µg/mL	2 µg/mL	3 µg/mL	–	–	–	–	–	–	–	–	–
CCCCCCCCCC(=O)NCCCC[C@H](NC(=O)[C@H](CC(C)C)NC(=O)[C@H](CCCCN)NC(=O)[C@H](CCCCNC(=O)[C@H](CC(C)C)NC(=O)[C@H](CCCCN)NC(=O)[C@H](CCCCNC(=O)[C@H](CC(C)C)NC(=O)[C@@H](N)CCCCN)NC(=O)[C@H](CC(C)C)NC(=O)[C@@H](N)CCCCN)NC(=O)[C@H](CC(C)C)NC(=O)[C@H](CCCCN)NC(=O)[C@H](CCCCNC(=O)[C@H](CC(C)C)NC(=O)[C@@H](N)CCCCN)NC(=O)[C@H](CC(C)C)NC(=O)[C@@H](N)CCCCN)C(N)=O [Compound G2KLC10, (KL)4(KKL)2(KKL-CO(CH2)8CH3)] (I: H-KLK([Leu-Lys])KLKKLK(Decanoyl)-NH2 / II: H-KLK([Leu-Lys])KL; amide I:6-II:C; N-terminus assumed)	–	–	–	–	8 µg/mL (≈ 3.37 µM)	64 µg/mL (≈ 27 µM)	4 µg/mL (≈ 1.69 µM)	16 µg/mL (≈ 6.74 µM)	64 µg/mL (≈ 27 µM)	8 to 16 µg/mL	4 µg/mL (≈ 1.69 µM)	8 µg/mL (≈ 3.37 µM)	–
CCCCCCCCCC(=O)NCCCC[C@H](NC(=O)[C@H](CC(C)C)NC(=O)[C@H](CCCCN)NC(=O)[C@H](CCCCNC(=O)[C@H](CC(C)C)NC(=O)[C@H](CCN)NC(=O)[C@H](CCCCNC(=O)[C@H](Cc1ccccc1)NC(=O)[C@@H](N)CCCNC(=N)N)NC(=O)[C@H](Cc1ccccc1)NC(=O)[C@@H](N)CCCNC(=N)N)NC(=O)[C@H](CC(C)C)NC(=O)[C@H](CCN)NC(=O)[C@H](CCCCNC(=O)[C@H](Cc1ccccc1)NC(=O)[C@@H](N)CCCNC(=N)N)NC(=O)[C@H](Cc1ccccc1)NC(=O)[C@@H](N)CCCNC(=N)N)C(N)=O [TNS-124, (RF)4(KDabL)2(KKLK-CO(CH2)8CH3)] (I: H-RFK([Phe-Arg])[Dab]LKKLK(Decanoyl)-NH2 / II: H-RFK([Phe-Arg])[Dab]L; amide I:6-II:C; N-terminus assumed)	–	–	–	–	8 µg/mL (≈ 3.12 µM)	32 µg/mL (≈ 12.5 µM)	4 to 8 µg/mL	8 to 16 µg/mL	8 µg/mL (≈ 3.12 µM)	16 to 32 µg/mL	4 to 8 µg/mL	8 µg/mL (≈ 3.12 µM)	16 to 32 µg/mL
CCCCCCCCCC(=O)NCCCC[C@H](NC(=O)[C@H](CC(C)C)NC(=O)[C@H](CCCCN)NC(=O)[C@H](CCCCNC(=O)[C@H](Cc1ccccc1)NC(=O)[C@H](CCN)NC(=O)[C@H](CCCCNC(=O)[C@H](CC(C)C)NC(=O)[C@@H](N)CCCN)NC(=O)[C@H](CC(C)C)NC(=O)[C@@H](N)CCCN)NC(=O)[C@H](Cc1ccccc1)NC(=O)[C@H](CCN)NC(=O)[C@H](CCCCNC(=O)[C@H](CC(C)C)NC(=O)[C@@H](N)CCCN)NC(=O)[C@H](CC(C)C)NC(=O)[C@@H](N)CCCN)C(N)=O [TNS-123, (OrnL)4(KDabF)2(KKLK-CO(CH2)8CH3)] (I: H-[Orn]LK([Leu-Orn])[Dab]FKKLK(Decanoyl)-NH2 / II: H-[Orn]LK([Leu-Orn])[Dab]F; amide I:6-II:C; N-terminus assumed)	–	–	–	–	16 µg/mL (≈ 6.87 µM)	>64 µg/mL	4 µg/mL (≈ 1.72 µM)	32 µg/mL (≈ 13.7 µM)	32 to 64 µg/mL	8 to 16 µg/mL	2 µg/mL (≈ 0.859 µM)	4 to 8 µg/mL	8 µg/mL (≈ 3.43 µM)
(KLL)4(KKLL)2(KKLL) [MIS-02]	15 µg/mL	1 µg/mL	–	3 µg/mL	–	–	–	–	–	–	–	–	–
CCCCCCCCCC(=O)NCCCC[C@H](NC(=O)[C@H](CC(C)C)NC(=O)[C@H](CCCCN)NC(=O)[C@H](CCCCNC(=O)[C@H](CC(C)C)NC(=O)[C@H](CCN)NC(=O)[C@H](CCCCNC(=O)[C@H](Cc1ccccc1)NC(=O)[C@@H](N)CCCN)NC(=O)[C@H](Cc1ccccc1)NC(=O)[C@@H](N)CCCN)NC(=O)[C@H](CC(C)C)NC(=O)[C@H](CCN)NC(=O)[C@H](CCCCNC(=O)[C@H](Cc1ccccc1)NC(=O)[C@@H](N)CCCN)NC(=O)[C@H](Cc1ccccc1)NC(=O)[C@@H](N)CCCN)C(N)=O [TNS-122, (OrnF)4(KDabL)2(KKLK-CO(CH2)8CH3] (I: H-[Orn]FK([Phe-Orn])[Dab]LKKLK(Decanoyl)-NH2 / II: H-[Orn]FK([Phe-Orn])[Dab]L; amide I:6-II:C; N-terminus assumed)	–	–	–	–	4 µg/mL (≈ 1.67 µM)	32 µg/mL (≈ 13.3 µM)	4 µg/mL (≈ 1.67 µM)	8 to 16 µg/mL	8 to 16 µg/mL	8 µg/mL	2 µg/mL (≈ 0.834 µM)	4 (8) μg/mL	8 µg/mL (≈ 3.34 µM)
